Values quoted from earlier work, collected in patent publication US5484785A, “Salts of a quinolone-carboxylic acid” (Cheil Foods & Chemicals, Inc., priority 1992, dated 1996).

## O=C(O)c1cn(C2CC2)c2cc(N3CCNCC3)c(F)cc2c1=O [Ciprofloxacin lactate]
lactate: contained in the injection in an excessive amount
  Precipitation in injection/solution (in words): tends to occur precipitation in an injection

## methanesulfonate
solution
  pH of known Ciprofloxacin salts (in words): very low value of pH

## O=C(O)c1cn(C2CC2)c2cc(N3CCNCC3)c(F)cc2c1=O [Ciprofloxacin, 1-cyclopropyl-6-fluoro-1,4-dihydro-4-oxo-7-(1-piperazinyl)-quinoline-3-carboxylic acid]
bacteria
  Antibacterial activities (in words): potent antibacterial activities
